In experiment [1] the test system is phospho-IRE1α. The experiment is described as follows: Western immunoblot of phospho-IRE1α (IRE1α kinase), HT1080 cells. The experiment is classed as cell-based, human. Particulars: preincubated 16 hours, 2.5 μM; Tm 5 μg/ml. The method, then: Cells (2×10^6) were cultured in 10-cm dishes, collected using a cell scraper at 4° C., and lysed by addition of 150 μl cell lysis buffer [50 mM Tris pH 7.4, 150 mM NaCl, 10% glycerol, 0.5% Triton X-100. 0.5% NP-40, 2 mM Na3VO4, 20 mM beta-glycerophosphate, 10 mM NaF, 1 mM DTT, 1 mM PMSF). Lysates were centrifuged for 5 min at 10,000×g, and proteins (˜40 μg) were resolved by SDS-PAGE followed by semi-dry transfer to nitrocellulose membranes. Membranes were blocked in TBS-5% milk supplemented with 0.1% Tween-20. The blots were then probed overnight with relevant antibodies, washed, and incubated for 2 hours with species-specific secondary antibodies conjugated to horseradish peroxidase. After washing in block solution, immunoreactive material was detected by enhanced chemiluminescence (SuperSignal West Dura Extended, Pierce, Inc., Rockville, Ill.).
HT1080 cells were exposed to DMSO vehicle (lane 1), irestatin 9389 (2.5 μM; lane 2) for 16 hours or Tm (5 μg/ml; lane 3) for 8 hours. Following treatments, cells were harvested, lysed, and analyzed by immunoblotting using anti-Grp78 antibody (top) or anti-actin (bottom) as a loading control. […] Cell lysates were analyzed by Western immunoblotting using anti-IRE1α (bottom) or anti-phospho-IRE1α antibodies (top). […] Lysates were analyzed by Western blot using antisera specific for phospho-JNK1 (top) or total JNK1 (bottom). […]
(A western blot detects proteins with antibodies after separation by electrophoresis.)

Experiment [2] has as its system XBP1-luciferase reporter. The experiment is described as follows: XBP-luciferase reporter high throughput screen / IRE IC50 (tunicamycin + thapsigargin induced). The conditions noted are these: Assay IRE IC50; Conc 20 uM. The experiment is classed as cell-based, human. The method, then:
Specifically, HT1080 fibrosarcoma cells stably transfected with the unspliced XBP-1-luciferase reporter construct (3000/well) were plated onto a solid white 384 well microplate with a multidrop dispenser (40 μL per well). The plates were then placed into an automated incubator. After 24 hours of growth, a mixture of tunicamycin (1 μg/ml) and thapsigargin (100 nM) inducers were added, and candidate compounds were then added to the plates. After 24 hours, luciferase reagent (10 μl) was added to each well and the plates were read in a Molecular Devices Analyst GT (0.2 second read per well).
As described above in Example 2, HT1080 fibrosarcoma cells stably expressing the XBP-luciferase reporter were plated in a 384 well microplate (4000 cells/well). After 24 hours, cells were treated with a mixture of tunicamycin (4 μg/ml) and thapsigargin (0.4 μM), followed by the addition of one compound per well (10 μM). We screened a total of 66,000 diverse molecules obtained from Specs, Chembridge and ChemRX. Twenty-four hours post-induction, BriteGlo luciferase substrate (10 μl) was added to each well and the signal intensity determined in a plate reader (0.2 s read per well). […] We retested 431 compounds from the initial screen, and selected 58 compounds for additional analysis, including calculation of IC50 values and inhibition of a CMV-luciferase reporter.
Compounds of the screening library with structural similarity to compound 9389 (see Table 1) have been identified and in some cases further assayed for inhibitory activity. Compounds listed with “IC50” values were assayed secondarily after initially being identified in the high throughput screen. Each value represents a separate calculation of reporter inhibition based upon the high throughput robotic screening platform. The actual IC50 values are calculated and represent an estimate of the potency of each compound. This assay is not considered to be accurate below a concentration of 10 nM. Compounds classified with “mild” activity inhibited the XBP1-luciferase reporter by 10-30%. Compounds classified with “moderate” activity inhibited the XBP1-luciferase reporter by 30-75%. Compounds classified with “potent” activity inhibited the XBP1-luciferase reporter by 75-100%. Compounds classified with “undetected” activity inhibited the XBP1-luciferase reporter by less than 10% under the defined conditions.
(In general: In a reporter assay the amount or activity of a reporter protein is the signal.)

Here are results for 1 compound from patent US20130150399A1, “INHIBITORS OF THE UNFOLDED PROTEIN RESPONSE AND METHODS FOR THEIR USE” (The Board of Trustees of the Leland Stanford Junior …, priority 2006, published 2013).

In the case of `Cc1csc(NC(=O)CSc2nc3c(c(C(F)(F)F)c2C#N)CCC3)n1` [Compound 9389], the “levels of phospho-IRE1α after addition of Tm” value in experiment [1] is on record as “rapid increase in levels of phospho-IRE1α”. Also, the “% Inh” value in experiment [2] stood at 100.3%.
